These results are taken from article PMC7721803, “Development of a penem antibiotic against Mycobacteroides abscessus” (Communications Biology, 2020).

One may read the MIC as the lowest concentration found to suppress growth. One may read the MIC50 as an inhibitory concentration at the 50% level, which refers to growth in some studies and to a panel of isolates in others. For orientation: MIC90 means an inhibitory concentration at the 90% level, which refers to growth in some studies and to a panel of isolates in others.

The conditions of series [1]: cited from earlier work.
Another series relates to M. abscessus. Description: MIC by broth dilution method (Middlebrook 7H9). To be noted: for MIC50 / MIC90: clinical M. abscessus strains of Table 1; for MIC50: read-out: MIC50; for MIC90: read-out: MIC90. The format is cell-based, Mycobacteroides abscessus. For orientation: In broth dilution the organism is exposed to a series of concentrations in liquid medium.
The test system of another series is M. abscessus ATCC 19977. The series is classed as cell-based, Mycobacteroides abscessus. The conditions noted are these: drug alone at its individual MIC (T405 2 µg/mL, imipenem 8 µg/mL).
The nature of another series: in vivo. Set-up: species or system BALB/c mice. To be noted: female, BALB/c, mouse, 25 mg/kg, T405 concentration in blood. The procedure:
All procedures involving mice were approved by the Animal Care and Use Committee of Johns Hopkins University. […] Blood was sampled from three mice per group per time point by mandibular vein puncture or cardiac puncture at the following time points: 5, 15, 30, 60, 120, and 240 min post-dose. Plasma was separated in heparin-containing tubes and frozen. […] Concentration–time data were analyzed by standard non-compartmental and compartmental techniques using WinNonlin (version 7.0; Pharsight, Mountain View, CA). A one-compartmental model was used to perform simulations to predict the plasma concentration–time profile after subcutaneous doses of 150, 300, and 450 mg/kg, alone and in combination with probenecid. A plasma free drug fraction of 2% of the total drug concentration was included in the simulations.

Where [2] appears, read: Mycobacteroides abscessus, ATCC19977, reference strain ATCC 19977, read-out: MIC.
[3] abbreviates: Mycobacteroides abscessus, clinical isolate 1N, read-out: MIC.
Where [4] appears, read: Mycobacteroides abscessus, clinical isolate 2N, read-out: MIC.
[5] abbreviates: Mycobacteroides abscessus, clinical isolate 3N, read-out: MIC.
The mark [6] stands for this setting: Mycobacteroides abscessus, clinical isolate 4N, read-out: MIC.
Setting [7] is: Mycobacteroides abscessus, clinical isolate 5N, read-out: MIC.
Setting [8] is: Mycobacteroides abscessus, clinical isolate 8N, read-out: MIC.
[9] abbreviates: Mycobacteroides abscessus, clinical isolate 11N, read-out: MIC.
The mark [10] stands for this setting: Mycobacteroides abscessus, clinical isolate 13N, read-out: MIC.
Setting [11] is: Mycobacteroides abscessus, clinical isolate 14N, read-out: MIC.
[12] abbreviates: Mycobacteroides abscessus, clinical isolate 202, read-out: MIC.
[13] abbreviates: Mycobacteroides abscessus, clinical isolate 203, read-out: MIC.
Where [14] appears, read: Mycobacteroides abscessus, clinical isolate 204, read-out: MIC.
[15] abbreviates: Mycobacteroides abscessus, clinical isolate 214, read-out: MIC.
Setting [16] is: Mycobacteroides abscessus, clinical isolate 215, read-out: MIC.
The mark [17] stands for this setting: Mycobacteroides abscessus, clinical isolate JH1801, read-out: MIC.
[18] abbreviates: Mycobacteroides abscessus, clinical isolate JH1802, read-out: MIC.
[19] abbreviates: Mycobacteroides abscessus, clinical isolate JHH2, read-out: MIC.
Setting [20] is: Mycobacteroides abscessus, clinical isolate JHH4, read-out: MIC.
Where [21] appears, read: Mycobacteroides abscessus, clinical isolate JHH9, read-out: MIC.
Where [22] appears, read: Mycobacteroides abscessus, clinical isolate JHHKB, read-out: MIC.

Values after ≈ are worked out from the molar mass of the structure shown. Like-named read-outs stand apart in the source and are kept apart here.

In the case of `C[C@@H](O)[C@H]1C(=O)N2C(C(=O)O)=C([C@H]3CCCO3)S[C@H]12` [Faropenem], the half-life in mice in series [1] was 11.4 min. Further, the MIC was determined as 512 µg/mL (≈ 1790 µM) in the series with M. abscessus (setting [2]); 256 µg/mL (≈ 897 µM) in the series with M. abscessus (setting [3]); 256 µg/mL (≈ 897 µM) in the series on M. abscessus (setting [4]); 256 µg/mL (≈ 897 µM) in the series on M. abscessus (setting [5]); 256 µg/mL (≈ 897 µM) in the series with M. abscessus (setting [6]); 512 µg/mL (≈ 1790 µM) in the series with M. abscessus (setting [7]). Besides, the MIC with M. abscessus (setting [8]) was 512 µg/mL (≈ 1790 µM); in the series on M. abscessus (setting [9]) it was 512 µg/mL (≈ 1790 µM); with M. abscessus (setting [10]), 64 µg/mL (≈ 224 µM); in the series with M. abscessus (setting [11]), 512 µg/mL (≈ 1790 µM); in the series with M. abscessus (setting [12]), 512 µg/mL (≈ 1790 µM); in the series on M. abscessus (setting [13]), 128 µg/mL (≈ 449 µM). Also, the MIC came to 512 µg/mL (≈ 1790 µM) in the series with M. abscessus (setting [14]); 128 µg/mL (≈ 449 µM) in the series on M. abscessus (setting [15]); 512 µg/mL (≈ 1790 µM) in the series on M. abscessus (setting [16]); 512 µg/mL (≈ 1790 µM) with M. abscessus (setting [17]); 256 µg/mL (≈ 897 µM) in the series with M. abscessus (setting [18]); 512 µg/mL (≈ 1790 µM) with M. abscessus (setting [19]). In addition, the MIC in the series with M. abscessus (setting [20]), in the series on M. abscessus (setting [21]) and with M. abscessus (setting [22]) was 512 µg/mL (≈ 1790 µM) in each case. For the same molecule, the MIC50 with M. abscessus (Mycobacteroides abscessus) turned out to be 512 µg/mL (≈ 1790 µM). Further, in the series with M. abscessus (Mycobacteroides abscessus), the MIC90 came to 512 µg/mL (≈ 1790 µM).
Consider `NC(=O)[C@@H]1CC[C@@H]2CN1C(=O)N2OS(=O)(=O)O` [avibactam], for which, in the series on M. abscessus (reference strain ATCC 19977), the MIC was 256 µg/mL (≈ 965 µM).
Take `C[C@@H](O)[C@H]1C(=O)N2C(C(=O)O)=C(SCCN=CN)C[C@H]12` [Imipenem]: the Resistance frequency with M. abscessus ATCC 19977 is given as 1.9 × 10^−7. Further, the minimal inhibitory concentration (MIC) was determined as 8 µg/mL (≈ 26.7 µM) in the series with M. abscessus (setting [2]); 8 µg/mL (≈ 26.7 µM) in the series on M. abscessus (setting [3]); 8 µg/mL (≈ 26.7 µM) in the series on M. abscessus (setting [4]); 8 µg/mL (≈ 26.7 µM) in the series with M. abscessus (setting [5]); 16 µg/mL (≈ 53.4 µM) in the series on M. abscessus (setting [6]); 16 µg/mL (≈ 53.4 µM) in the series with M. abscessus (setting [7]). Moreover, the MIC with M. abscessus (setting [8]) is 32 µg/mL (≈ 107 µM); in the series on M. abscessus (setting [9]) it was 32 µg/mL (≈ 107 µM); in the series with M. abscessus (setting [10]), 8 µg/mL (≈ 26.7 µM); in the series on M. abscessus (setting [11]) it was 32 µg/mL (≈ 107 µM); in the series with M. abscessus (setting [12]), 16 µg/mL (≈ 53.4 µM); in the series with M. abscessus (setting [13]), 32 µg/mL (≈ 107 µM). For the same molecule, the MIC with M. abscessus (setting [14]) came out at 32 µg/mL (≈ 107 µM); in the series on M. abscessus (setting [15]) it was 8 µg/mL (≈ 26.7 µM); in the series with M. abscessus (setting [16]), 16 µg/mL (≈ 53.4 µM); in the series with M. abscessus (setting [17]), 16 µg/mL (≈ 53.4 µM); with M. abscessus (setting [18]), 16 µg/mL (≈ 53.4 µM); in the series on M. abscessus (setting [19]), 32 µg/mL (≈ 107 µM). The figures for the minimum inhibitory concentration (MIC) in the series with M. abscessus (setting [20]), with M. abscessus (setting [21]) and in the series with M. abscessus (setting [22]) were 16 µg/mL (≈ 53.4 µM), 16 µg/mL (≈ 53.4 µM) and 256 µg/mL (≈ 855 µM), respectively. For the same molecule, in the series with M. abscessus (Mycobacteroides abscessus), the MIC50 was 16 µg/mL (≈ 53.4 µM). Further, in the series with M. abscessus (Mycobacteroides abscessus), the MIC90 was determined as 32 µg/mL (≈ 107 µM).
As for `C[C@@H](O)[C@@H]1C(=O)N2C(C(=O)O)=C(SC3CN(C4=NCCS4)C3)S[C@@H]12` [T405], in the series “in vivo”, the concentration at 5 min was 169 ng/mL, the concentration at 0.25 h was 157 ng/mL, the concentration at 0.5 h was determined as 143 ng/mL and the concentration at 1 h is 65 ng/mL. For the same molecule, the concentration at 2 h in the series “in vivo” came to 25.1 ng/mL.
